Assay results reported in patent US9962341B2, “Active pharmaceutical ingredient (API) comprising cannabinoids for use in the treatment of cancer” (GW Pharma Limited, priority 2014, dated 2018).

Tests used:
[1] = tested on: HepG2; test: Cell viability (CellTiter-Blue, 72 h), HepG2 liver cancer cells; format: cell-based; details: Homo sapiens, HepG2, 72 h, read-out: IC50 values
Method: The cell lines tested in this Example were as follows. Breast cancer: MDA-MB-231; SK-BR3; and BT474. Liver cancer: HepG2.
(§1) The phytocannabinoids were tested alone and in various ratioed combinations in media containing final concentrations of 10% and 1% foetal bovine serum at 72 h for the breast and prostate cancer lines and 1% foetal bovine serum for the liver cancer line HepG2.
Each tumour cell line was maintained in vitro in RPMI 1640+10% heat inactivated FBS and 2 mM L-glutamine (growth media) at 37° C. in 5% CO2 and humidified conditions. The cells were harvested, washed, re-suspended into growth medium and counted. The cells were re-suspended into assay media (RPMI 1640+5% heat inactivated FBS+ and 2 mM L-glutamine) at 8×104-2×10^5 cells/ml (dependent upon cell type) and plated into the middle 240 wells of 384 well tissue culture plates (Corning CellBind, black-wall plates) 12.5 μl/well aliquots; 62.5 μl of growth media was aliquoted into the outer wells. There were 4 plates for each cell line. The plates were incubated overnight at 37° C., in 5% humidified CO2.
The phytocannabinoid test compounds were prepared in 100% DMSO vehicle at a stock concentration of 10 mM.
Starting with the 10 mM stock, the compounds were diluted to 125 μM in FBS-free growth media.
These were diluted in FBS-free growth media to 125 μM before serial dilution.
5 volumes of CBD 10 mM stock was added to 1 volume of the other agent (also at 10 mM) and 4 volumes of DMSO. This made a final concentration of 5 mM:1 mM. This was then diluted in FBS-free growth media so the top concentration of CBD would be 125 μM (before serial dilution). Each compound and compound combination stock was serially diluted in FBS-free growth media (containing 1.25% v/v DMSO) from 125 μM to 41.7, 13.89, 4.63, 1.54, 0.514, 0.171, 0.057 and 0.019 μM (1.25× final assay concentrations). Vehicle was prepared at equivalent dilutions in assay media. The top final concentration of compound in the assay was always 100 μM so CBD5:1CBG was 100 μM CBD and 20 μM CBG.
The plates were incubated for 72 h at 37° C. in 5% humidified CO2. To develop the plates, at 72 h, 10 μl of CellTiter-Blue™ reagent was added to each test/blank well. The plates were incubated at 37° C., 5% humidified CO2. Fluorescence was measured using a Flex II Station plate reader (570 nm excitation wavelength, 600 nm emission wavelength, 590 nm cut-off) after 3 h.
The raw data values expressed in relative fluorescent units were normalised to the vehicle for each individual plate and any reduction in fluorescence indicated a decrease in viability.
The data were analysed in GraphPad PRISM using a non-linear sigmoidal plot with variable slope (asymmetric five point linear regression) and where possible an IC50 value for each single compound and combination was generated.

[2] = tested on: LNCAP cells compared to DU145 cells; test: Cell viability, prostate cancer lines LNCAP and DU145 (potency comparison); format: cell-based; details: media containing 10% FBS
Method: as §1

Row | SMILES | IC50 [1] | fold more potent in LNCAP cells compared to DU145 cells [2]
1 | C=C(C)[C@@H]1CCC(C)=C[C@H]1c1c(O)cc(CCCCC)cc1O [CBD, Cannabidiol] | 3.3 µM | –
2 | C=C(C)[C@@H]1CCC(C)=C[C@H]1c1c(O)cc(CCCCC)c(C(=O)O)c1O [CBDA, Cannabidiolic acid] | 7.4 µM | –
3 | CCCCCc1cc(O)c(C/C=C(\C)CCC=C(C)C)c(O)c1 [CBG, Cannabigerol] | 3.7 µM | –
4 | CCCCCc1cc(O)c(C/C=C(\C)CCC=C(C)C)c(O)c1C(=O)O [CBGA, Cannabigerolic acid] | 9.3 µM | –
5 | CCCc1cc(O)c2c(c1)OC(C)(C)[C@@H]1CCC(C)=C[C@@H]21 [THCV, Tetrahydrocannabivarin] | 7.2 µM | 5 fold
